# Laboratory results from PubChem BioAssay (NCI).
# Where “and” joins values, the source holds several entries; their conditions need not be identical. Identical values can stand only once.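 Dose response: 5 concentrations. Exposure: 48 h. Format: 96-well plates. Endpoint: linear interpolation; highest concentration if not reached. GI50 = concentration required for 50% inhibition of growth. TGI is the concentration that stops growth completely.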
# Experiments:
# Test in all cases: DTP human tumour cell line panel, 48 h
# T-47D breast = test system: T-47D breast
# NCI-H226 lung = test system: NCI-H226 lung
# KM12 colon = test system: KM12 colon
# ACHN renal = test system: ACHN renal
# CCRF-CEM leukemia = test system: CCRF-CEM leukemia
# HT29 colon = test system: HT29 colon
# BT-549 breast = test system: BT-549 breast
# TK-10 renal = test system: TK-10 renal
# UACC-257 melanoma = test system: UACC-257 melanoma
# COLO 205 colon = test system: COLO 205 colon
SMILES,GI50 (T-47D breast),TGI (T-47D breast),GI50 (NCI-H226 lung),TGI (NCI-H226 lung),GI50 (KM12 colon),TGI (KM12 colon),GI50 (ACHN renal),TGI (ACHN renal),GI50 (CCRF-CEM leukemia),GI50 (HT29 colon),TGI (HT29 colon),GI50 (BT-549 breast),TGI (BT-549 breast),GI50 (TK-10 renal),TGI (TK-10 renal),GI50 (UACC-257 melanoma),TGI (UACC-257 melanoma),GI50 (COLO 205 colon),TGI (COLO 205 colon),TGI (CCRF-CEM leukemia) [µM]
COc1ccc2c(c1)C(=O)c1c-2n(CCCN2CCOCC2)c(=O)c2cc([N+](=O)[O-])ccc12,< 0.01 µM,> 100 µM,< 0.01 µM,0.405 µM,< 0.01 µM,0.544 µM,< 0.01 µM,< 0.0108 µM,< 0.01 µM,< 0.01 µM,> 100 µM,< 0.01 µM,0.448 µM,0.0623 µM,17.7 µM,0.0504 µM,3.08 µM,< 0.0111 µM,> 45.4 µM,
Oc1ccc(CN(Cc2ccc(C(F)(F)F)cc2)Cc2ccc(O)c3ncccc23)c2cccnc12,0.028 µM,> 100 µM,0.0512 µM,11.7 µM,0.0415 µM,> 100 µM,0.0256 µM,> 100 µM,0.0314 µM,0.0717 µM,> 100 µM,0.0297 µM,> 100 µM,0.0165 µM,> 100 µM,,,0.091 µM,> 100 µM,> 100
CNCCOC(=O)/C=C1/CCC2C(C(O)CC3C(C)(C(=O)OC)CCCC23C)C1C (stereo unspecified),0.0294 µM,0.0762 µM,0.0191 µM,0.0408 µM,0.0339 µM,0.111 µM,< 0.01 µM,0.0173 µM,0.0138 µM,0.0231 µM,0.0473 µM,0.0242 µM,0.064 µM,0.0168 µM,0.0351 µM,0.0226 µM,0.0512 µM,0.0348 µM,0.0958 µM,0.0518
COc1ccc(-c2csc3c2-n2cccc2C3=O)cc1O,39.4 µM,> 100 µM,12.1 µM,> 46.6 µM,0.0653 µM,> 100 µM,< 0.0489 µM,> 100 µM,0.059 µM,3.68 µM,> 78.1 µM,0.0197 µM,> 100 µM,17.6 µM,98.7 µM,1.36 µM,> 100 µM,9.77 µM,26.3 µM,0.4
COc1cc2c(cc1OCCCN1CCN(c3cc(=O)oc4c(C)c(OC)ccc34)CC1)N=C[C@@H]1CCCN1C2=O,1.17 µM,,1.88 µM,4.03 µM,1.65 µM,9.11 µM,1.86 µM,4.55 µM,0.122 µM,1.16 µM,,1.21 µM,6.96 µM,1.67 µM,> 100 µM,,,0.268 µM,1.43 µM,1.36
COC(=O)[C@]12CC=C3O[C@@H]4OC5(CCCCC5)O[C@@H]4[C@H]3C1C(=O)C=CC2=O (stereo partly specified),,42.5 µM,,34.5 µM,,20.7 µM,,32.6 µM,,,34.6 µM,,34.5 µM,,31.4 µM,,32.5 µM,,30.4 µM,14.3
COc1cc(-c2n/c(=C\c3c(O)[nH]c4ccccc34)cc3c2=Nc2ccccc2-3)cc(OC)c1OC,1.14 µM,> 22.5 µM,4.23 µM,> 100 µM,2.03 µM,16.4 µM,1.11 µM,> 100 µM,1.12 µM,0.407 µM,2.53 µM,0.486 µM,2.47 µM,2.18 µM,25 µM,1.73 µM,> 100 µM,1.55 µM,6.7 µM,> 100
CO/N=C(/COc1c(-c2ccccc2)oc2ccccc2c1=O)c1ccc(F)cc1,> 100 µM,> 100 µM,> 100 µM,> 100 µM,> 100 µM,> 100 µM,31.8 µM,> 100 µM,12.6 µM,> 100 µM,> 100 µM,82.9 µM,> 100 µM,27.2 µM,95.7 µM,> 100 µM,> 100 µM,> 100 µM,> 100 µM,67.9
CO/C(=N\N=C\c1cccc(C(F)(F)F)c1)c1ccncc1,,> 100 µM,,27.4 µM,,> 100 µM,27.3 µM,> 100 µM,3.71 µM,3.47 µM,19 µM,8.78 µM,68 µM,,> 100 µM,,> 100 µM,,39.6 µM,84.1
Oc1cc(Cl)ccc1Cc1ccc(Cl)cc1O,4.91 µM,29.3 µM,24.7 µM,57.8 µM,14.8 µM,28.1 µM,10 µM,31.2 µM,15.8 µM,17.5 µM,31.3 µM,4.22 µM,19.1 µM,17 µM,34.8 µM,14.7 µM,36.9 µM,16.9 µM,30.6 µM,> 100
CCCCCCN1CCN(Cc2ccc(N(CC)CC)cc2)C(=O)C1=O,5.69 µM,> 100 µM,5.84 µM,27.8 µM,2.47 µM,82.4 µM,6.45 µM,> 100 µM,2.69 µM,3.34 µM,> 100 µM,10.2 µM,95.6 µM,10.3 µM,77.5 µM,16.9 µM,> 100 µM,0.759 µM,10.1 µM,> 100
COc1ccc(C(=O)CC(c2ccc(OC)c(OC)c2)c2c(O)c3ccccc3oc2=O)cc1OC (stereo unspecified),,> 100 µM,,> 100 µM,,> 100 µM,,> 100 µM,,,> 100 µM,,> 100 µM,,> 100 µM,,> 100 µM,,> 100 µM,> 100
CCOC(=O)/C(=C\c1ccc(F)cc1)C(C)=O,,63.9 µM,,75.2 µM,,69 µM,,50.7 µM,,,> 100 µM,,51.4 µM,,52.3 µM,,44.7 µM,,> 100 µM,> 100
Cc1ccc(F)cc1NC(=O)c1cc(Cl)ccc1Nc1ccccc1,> 100 µM,> 100 µM,> 100 µM,> 100 µM,> 100 µM,> 100 µM,> 100 µM,> 100 µM,20.2 µM,> 100 µM,> 100 µM,> 100 µM,> 100 µM,> 100 µM,> 100 µM,> 100 µM,> 100 µM,> 100 µM,> 100 µM,> 100
CN1CCC(n2[nH]c(-c3ccccc3)c(Cc3ccccc3)c2=O)CC1,,> 100 µM,,> 100 µM,,> 100 µM,,> 100 µM,,,> 100 µM,,> 100 µM,,> 100 µM,,> 100 µM,,> 100 µM,> 100
C=C(C)[C@@H]1CC[C@]2(C(=O)NCCNCCNCCN)CC[C@]3(C)[C@H](CC[C@@H]4[C@@]5(C)CCC(=O)C(C)(C)[C@@H]5CC[C@]43C)[C@@H]12,7.52 µM,18.7 µM,7.74 µM,17.1 µM,8.47 µM,16.6 µM,13.8 µM,> 50 µM,9.65 µM,7.17 µM,14.6 µM,8.91 µM,22.2 µM,10.1 µM,19.7 µM,7.91 µM,18.3 µM,8.74 µM,19 µM,27.8
C[C@@H]1COC(Nc2ccc3ncnc(Nc4ccc(OCc5nccs5)c(Cl)c4)c3c2)=N1,0.286 µM and 1.03 µM,> 10 µM and 12.5 µM,4.02 µM and 4.04 µM,> 10 µM and 18.2 µM,4.38 µM and 4.14 µM,> 10 µM and 33.8 µM,0.446 µM and 0.432 µM,> 10 µM and 16.6 µM,3.55 µM and 3.46 µM,5.04 µM and 4.33 µM,> 10 µM and 17.8 µM,3.65 µM and 3.28 µM,> 10 µM and 12.4 µM,0.235 µM and 0.259 µM,> 10 µM and 14.8 µM,> 10 µM and 5.59 µM,> 10 µM and 25.6 µM,3.79 µM and 4.86 µM,> 10 µM and 17.1 µM,> 80.9
Cc1cc2nc3c4cccc(O)c4n(CCN(C)C)c3nc2cc1C,3.8 µM,27.9 µM,3.72 µM,52.9 µM,1.65 µM,4.17 µM,1.09 µM,3.18 µM,1.57 µM,2.81 µM,20 µM,5.38 µM,32.8 µM,4.37 µM,19.8 µM,2 µM,4.58 µM,3.89 µM,19.4 µM,6.25
COc1ccc(-c2cc(-c3nnc(SCC(=O)Nc4ccc(C(C)=O)cc4)o3)c3ccccc3n2)cc1,> 100 µM,> 100 µM,43.6 µM,> 100 µM,> 100 µM,> 100 µM,5.64 µM,31.7 µM,> 100 µM,> 100 µM,> 100 µM,8.77 µM,> 100 µM,28.7 µM,78.6 µM,> 100 µM,> 100 µM,> 100 µM,> 100 µM,> 100
COc1cc2ncn(-c3cc(OCc4ccccc4S(C)(=O)=O)c(C#N)s3)c2cc1OC,> 25 µM,> 25 µM,> 25 µM,> 25 µM,> 25 µM,> 25 µM,> 25 µM,> 25 µM,> 25 µM,> 25 µM,> 25 µM,> 25 µM,> 25 µM,> 25 µM,> 25 µM,> 25 µM,> 25 µM,> 25 µM,> 25 µM,> 25
Cc1cc(C)c2c(N)c3cccc(C)c3nc2n1,2.03 µM,6.25 µM,1.2 µM,4.49 µM,3.32 µM,9.69 µM,0.852 µM,5.08 µM,3.84 µM,0.994 µM,5.27 µM,3.48 µM,20.2 µM,1.83 µM,7.05 µM,2.15 µM,4.45 µM,0.702 µM,2.17 µM,17
COc1ccc(C2=C(c3cc(OC)c(OC)c(OC)c3)C(=O)OC2)cc1OC,54 µM,> 100 µM,6.06 µM,> 28.5 µM,< 0.0164 µM,,67.5 µM,> 100 µM,< 0.01 µM,0.0256 µM,> 24.3 µM,12.1 µM,97.9 µM,< 0.0283 µM,1.91 µM,> 38.6 µM,> 81.1 µM,0.295 µM,0.941 µM,> 100
COc1ccc2c(c1)[C@@]1(C)CCC3c4ccc(O)cc4CCC3C1C2 (stereo partly specified),11.7 µM,26.8 µM,18.7 µM,38.2 µM,15.4 µM,36.8 µM,15.9 µM,29.8 µM,12.8 µM,3.96 µM,17.5 µM,22.4 µM,40.7 µM,14 µM,29 µM,17.7 µM,33.7 µM,14.7 µM,31 µM,45.8
CC[C@@]1(O)C(=O)OCc2c1cc1n(c2=O)Cc2cc3c(NC(=O)CN)cccc3nc2-1,,0.744 µM,,3.79 µM,,34.6 µM,,1.02 µM,,,> 100 µM,,> 100 µM,,> 81.7 µM,,13.2 µM,,> 51.3 µM,2.33
Cc1ccc(/C(=C/C=C(C#N)C#N)Sc2ccccn2)cc1,4 µM,> 24.7 µM,2.53 µM,7.06 µM,3.33 µM,20.2 µM,1.83 µM,3.52 µM,0.168 µM,2.89 µM,8.41 µM,2.59 µM,6.85 µM,3.02 µM,12.1 µM,14.6 µM,28.1 µM,1.72 µM,3.79 µM,0.575
CC(C)=CC1CC(C)C2(CCC3(C)CC4C(C(=O)CC4(C)O)/C(C=O)=C\CC32)O1 (stereo unspecified),,0.143 µM,,0.147 µM,,0.262 µM,,0.115 µM,,,0.102 µM,,0.351 µM,,0.0596 µM,,0.28 µM,,0.153 µM,0.0422
O=[N+]([O-])/C=C/c1ccc([N+](=O)[O-])cc1,2.78 µM,9.03 µM,2.06 µM,5.37 µM,2.25 µM,4.71 µM,2.08 µM,4.16 µM,3.63 µM,2.07 µM,5 µM,2.1 µM,4.02 µM,2.7 µM,6.19 µM,1.88 µM,5.01 µM,1.97 µM,4.22 µM,84.4
